Some test systems named below: EKVX NSCLC; IGROV1 ovarian; OVCAR-4 ovarian; OVCAR-5 ovarian; OVCAR-8 ovarian; RXF 393 renal; UACC-257 melanoma; UO-31 renal; MDA-MB-231 breast.
What all share (experiment): NCI anticancer screen, dose series, 48 h

The structures appear in SMILES notation.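 Assay format: 96-well plates, 48-hour exposure. GI50 is the concentration that inhibits growth by half. TGI denotes the concentration required for complete inhibition of growth.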 Bounds are passed on as bounds.

With `CNC(=O)OCc1cc2ccncc2c2c1[nH]c1ccccc12`, the TGI in the assay on EKVX NSCLC was greater than 100 µM; with IGROV1 ovarian it was greater than 100 µM; with OVCAR-4 ovarian, greater than 100 µM; in the assay on OVCAR-5 ovarian, greater than 100 µM; with OVCAR-8 ovarian it was greater than 100 µM; in the assay on RXF 393 renal, 8.39 µM. For the same compound, the TGI in the assay on UACC-257 melanoma and with UO-31 renal was greater than 100 µM throughout.

Regarding `Cc1cccc2c1ccc1c3occ(C)c3c(=O)oc21`, the GI50 is 76.6 µM with EKVX NSCLC; greater than 100 µM in the assay on IGROV1 ovarian; greater than 100 µM in the assay on MDA-MB-231 breast; greater than 100 µM in the assay with OVCAR-4 ovarian; greater than 100 µM with OVCAR-5 ovarian; greater than 100 µM with OVCAR-8 ovarian. Besides, the GI50 in the assay with UACC-257 melanoma and in the assay with UO-31 renal was greater than 100 µM throughout. The TGI with EKVX NSCLC, in the assay with IGROV1 ovarian, in the assay with MDA-MB-231 breast, with OVCAR-4 ovarian, in the assay on OVCAR-5 ovarian and with OVCAR-8 ovarian was greater than 100 µM each time. In addition, the TGI in the assay on UACC-257 melanoma and in the assay on UO-31 renal was greater than 100 µM in each case.

As for `COc1cc2c3c(c1OCc1ccccc1)NCCC3NCC2` (stereo unspecified), the TGI with EKVX NSCLC, in the assay on IGROV1 ovarian, with OVCAR-4 ovarian, with OVCAR-5 ovarian, in the assay with OVCAR-8 ovarian and in the assay on RXF 393 renal was greater than 100 µM throughout. The TGI in the assay on UACC-257 melanoma and in the assay on UO-31 renal was greater than 100 µM throughout.

In the case of `Cc1cn2c(/C=N/N=C(N)N)c(-c3cc(Cl)sc3Cl)nc2s1`, the GI50 is 0.886 µM in the assay with OVCAR-5 ovarian and 1.19 µM in the assay on OVCAR-8 ovarian. The TGI in the assay on OVCAR-5 ovarian turned out to be 1.59 µM; in the assay with OVCAR-8 ovarian it was 2.9 µM.

For `CCCCCCCCCCNC(=S)OCCCC`, the TGI in the assay on EKVX NSCLC was 65.8 µM; in the assay with IGROV1 ovarian, 87.3 µM; with OVCAR-4 ovarian, greater than 100 µM; in the assay on OVCAR-5 ovarian, 29 µM; with OVCAR-8 ovarian, greater than 100 µM; in the assay on RXF 393 renal it was 59.5 µM. Moreover, the values for the TGI in the assay on UACC-257 melanoma and with UO-31 renal were 49.3 µM and 60.3 µM, respectively.

For the compound `NC(=O)OCC(COc1ccc(Cl)cc1)OC(=O)c1cc([N+](=O)[O-])cc([N+](=O)[O-])c1` (stereo unspecified), the TGI with EKVX NSCLC, with IGROV1 ovarian, in the assay on OVCAR-5 ovarian, in the assay on OVCAR-8 ovarian, in the assay with RXF 393 renal and with UACC-257 melanoma was greater than 100 µM throughout. Besides, the TGI with UO-31 renal was greater than 100 µM.

Turning to `CCOC(=O)/C(=C/c1ccc(Cl)cc1)N(CC)CC`, the TGI in the assay on EKVX NSCLC, with IGROV1 ovarian, with OVCAR-4 ovarian, in the assay on OVCAR-5 ovarian, with OVCAR-8 ovarian and with UACC-257 melanoma was greater than 100 µM in each case. Besides, the TGI in the assay on UO-31 renal was greater than 100 µM.

As for `C/C=C/C=C\C(=O)C1c2cccc(O)c2C(=O)c2c(O)cc(C)cc21` (stereo unspecified), the TGI amounted to 13.4 µM with EKVX NSCLC; 2.91 µM in the assay with IGROV1 ovarian; 3.3 µM with OVCAR-4 ovarian; 3.33 µM in the assay with OVCAR-5 ovarian; 3.19 µM in the assay on OVCAR-8 ovarian; 2.81 µM in the assay with RXF 393 renal. Besides, the TGI with UACC-257 melanoma is 3.46 µM; in the assay on UO-31 renal, 3.08 µM.

As for `COc1cccc(N2C(=O)[C@H]3[C@H]4CC(C(C)(C)C)CC[C@H]4c4c([nH]c5ccccc45)[C@H]3C2=O)c1` (stereo partly specified), the TGI with EKVX NSCLC was 40.6 µM; in the assay with IGROV1 ovarian it was 39.1 µM; with OVCAR-8 ovarian it was 29.7 µM; with RXF 393 renal, 42 µM; in the assay on UACC-257 melanoma it was 48.6 µM; in the assay on UO-31 renal it was 35.5 µM.

As to `Nc1nc(Cl)nc2c1ncn2C1CCC(COP(=O)(O)OP(=O)(O)OP(=O)(O)O)O1` (stereo unspecified), the TGI in the assay on EKVX NSCLC is greater than 100 µM; in the assay on IGROV1 ovarian, greater than 100 µM; in the assay on MDA-MB-231 breast, greater than 100 µM; in the assay on OVCAR-4 ovarian it was 77.8 µM; with OVCAR-5 ovarian, 93.3 µM; with OVCAR-8 ovarian, 51.9 µM. Also, the values for the TGI in the assay with RXF 393 renal, in the assay with UACC-257 melanoma and in the assay with UO-31 renal were 75 µM, greater than 100 µM and 48.2 µM, respectively.

Take `CCC[CH2][Ge]([CH2]CCC)([CH2]CCC)[O]C(=O)C(OC(C)=O)c1ccccc1` (stereo unspecified): the TGI in the assay on EKVX NSCLC came out at 9.37 µM; in the assay on IGROV1 ovarian, 25.8 µM; with OVCAR-4 ovarian, 20.2 µM; in the assay on OVCAR-5 ovarian, 17.5 µM; in the assay on OVCAR-8 ovarian, 22.8 µM; in the assay on RXF 393 renal it was 1.44 µM. The results for the TGI with UACC-257 melanoma and in the assay with UO-31 renal were 11.5 µM and 18.5 µM, respectively. Further, the GI50 was 11.2 µM in the assay on IGROV1 ovarian; 0.166 µM with OVCAR-4 ovarian; 3.36 µM in the assay with OVCAR-5 ovarian; 9.77 µM in the assay on OVCAR-8 ovarian; 0.102 µM in the assay with RXF 393 renal; 0.246 µM in the assay with UACC-257 melanoma. Besides, in the assay on UO-31 renal, the GI50 was 1.5 µM.

In the case of `O=C(O)CP(=O)(c1ccccc1)c1ccccc1.O=C(O)CP(=O)(c1ccccc1)c1ccccc1.[Cd]`, the GI50 in the assay on IGROV1 ovarian is 16.6 µM; in the assay with MDA-MB-231 breast it was 15.7 µM; in the assay with OVCAR-4 ovarian it was 13.3 µM; with OVCAR-5 ovarian it was 16 µM; with OVCAR-8 ovarian, 32.7 µM; with RXF 393 renal, 68.8 µM. In addition, the GI50 was 15.4 µM in the assay on UACC-257 melanoma and 21.6 µM in the assay with UO-31 renal. The TGI with IGROV1 ovarian is 37.1 µM; in the assay on MDA-MB-231 breast, 32.2 µM; with OVCAR-4 ovarian it was 34.1 µM; with OVCAR-5 ovarian, 30.6 µM; in the assay on OVCAR-8 ovarian it was greater than 100 µM; in the assay with RXF 393 renal, greater than 100 µM. The TGI is 31.4 µM with UACC-257 melanoma and 49.1 µM in the assay with UO-31 renal.

With `O=C(NCCCCCCNC(=O)NC1OCC(O)C(O)C1O)NC1OCC(O)C(O)C1O` (stereo unspecified), the TGI in the assay on EKVX NSCLC, in the assay with IGROV1 ovarian, with OVCAR-4 ovarian, in the assay with OVCAR-5 ovarian, in the assay with OVCAR-8 ovarian and in the assay on RXF 393 renal was greater than 100 µM in each case.

As for `Cc1cc2c(=O)c3ccccc3oc2c(C#N)c1C`, the TGI in the assay with EKVX NSCLC, in the assay on IGROV1 ovarian, in the assay with OVCAR-4 ovarian, in the assay on OVCAR-5 ovarian, with OVCAR-8 ovarian and in the assay with RXF 393 renal was greater than 100 µM throughout. Moreover, the TGI in the assay on UACC-257 melanoma and in the assay on UO-31 renal was greater than 100 µM throughout.

Source of the values: PubChem BioAssay (NCI).
